Measured values published in paper PMC6270420, “Antibacterial Activity of Salicylanilide 4-(Trifluoromethyl)benzoates” (Molecules, 2013).
Values after ≈ are worked out from the molar mass of the structure shown. Like-named read-outs stand apart in the source and are kept apart here.

What was measured:
[1] = target: T1, mycobacterial isocitrate lyase (ICL1, Rv0467) (Mycobacterium tuberculosis, UniProt P9WKK7); assay: Isocitrate lyase inhibition assay (ICL1); type: biochemical, Mycobacterium tuberculosis H37Rv; conditions: 10 μmol/L; read-out: % ICL inhibition at 10 μmol/L (± standard deviation)
T1 construct: His tag (from pET-28b(+)); made in house; host or cells: E. coli BL21(DE3), pET-28b(+) plasmid
T1 sequence (P9WKK7 1-428): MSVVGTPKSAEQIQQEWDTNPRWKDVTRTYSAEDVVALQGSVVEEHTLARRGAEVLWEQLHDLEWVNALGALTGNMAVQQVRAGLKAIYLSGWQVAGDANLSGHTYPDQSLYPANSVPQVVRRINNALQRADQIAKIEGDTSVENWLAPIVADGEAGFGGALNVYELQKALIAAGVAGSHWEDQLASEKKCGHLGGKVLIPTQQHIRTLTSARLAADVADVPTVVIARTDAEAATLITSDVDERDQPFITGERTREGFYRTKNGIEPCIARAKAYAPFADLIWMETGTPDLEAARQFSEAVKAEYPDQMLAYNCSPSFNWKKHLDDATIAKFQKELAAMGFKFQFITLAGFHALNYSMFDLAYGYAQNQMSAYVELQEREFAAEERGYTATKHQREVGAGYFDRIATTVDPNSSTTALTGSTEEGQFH

[2] = system: Mycobacterium avium 330/88; assay: Antimycobacterial MIC micromethod; type: cell-based
[3] = system: Mycobacterium kansasii 235/80; assay: Antimycobacterial MIC micromethod; type: cell-based; conditions: read-out: MIC M. kansasii 235/80
[4] = system: M. kansasii 6509/96 (clinically isolated strain); assay: Antimycobacterial MIC micromethod; type: cell-based; conditions: Mycobacterium kansasii, read-out: MIC M. kansasii 6509/96
[5] = system: Mycobacterium tuberculosis 331/88 (H37Rv); assay: Antimycobacterial MIC micromethod, Šula's medium; type: cell-based
[6] = system: Staphylococcus epidermidis H 6966/08; assay: Antibacterial microdilution broth method; type: cell-based; conditions: read-out: MIC/IC90 S. epidermidis H 6966/08
Procedure: (§1) The in vitro antibacterial activity was assayed against eight Gram-positive and Gram-negative strains: Staphylococcus aureus CCM 4516/08, methicillin-resistant Staphylococcus aureus H 5996/08 (MRSA), Staphylococcus epidermidis H 6966/08, Enterococcus sp. J 14365/08; Escherichia coli CCM 4517, Klebsiella pneumoniae D 11750/08, ESBL-positive Klebsiella pneumoniae J 14368/08, and Pseudomonas aeruginosa CCM 1961.
(§2) The microdilution broth method modified according to standard M07-A07 in Mueller-Hinton broth (HiMedia Laboratories, Mumbai, India) adjusted to pH 7.4 (±0.2) was used. The tested compounds were dissolved in DMSO to the final concentrations ranging from […]. Benzylpenicillin (penicillin G) was used as a comparative drug. Bacterial inoculum in sterile water was prepared to match 0.5 McFarland scale ([…]). The minimum inhibitory concentrations were assayed as 90% (IC90) or higher reduction of growth when compared to the control. The determination of results was performed visually and spectrophotometrically (at 540 nm). The values of MICs were determined after 24 and 48 h of incubation in the darkness at 35 °C (±0.1) in a humid atmosphere.

[7] = system: methicillin-resistant Staphylococcus aureus H 5996/08 (MRSA); assay: Antibacterial microdilution broth method; type: cell-based; conditions: read-out: MIC/IC90 MRSA H 5996/08
Procedure: as §1, §2

[8] = system: Escherichia coli CCM 4517; assay: Antibacterial microdilution broth method; type: cell-based; conditions: read-out: MIC/IC90 E. coli CCM 4517
Procedure: as §1, §2

[9] = system: Staphylococcus aureus CCM 4516/08; assay: Antibacterial microdilution broth method; type: cell-based; conditions: read-out: MIC/IC90 S. aureus CCM 4516/08
Procedure: as §1, §2

[10] = system: Enterococcus sp. J 14365/08; assay: Antibacterial microdilution broth method; type: cell-based; conditions: read-out: MIC/IC90 Enterococcus sp. J 14365/08
Procedure: as §1, §2

[11] = 336 h, 14 d, read-out: MIC Mtb. 331/88
[12] = 504 h, 21 d, read-out: MIC Mtb. 331/88

| Compound | inhibition at 10 µM [1] [%] | MIC ([2]; 330/88, 336 h, 14 d) [µM] | MIC ([2]; 330/88, 504 h, 21 d) [µM] | MIC ([3]; 235/80, 168 h, 7 d) [µM] | MIC ([3]; 235/80, 336 h, 14 d) [µM] | MIC ([3]; 235/80, 504 h, 21 d) [µM] | MIC ([4]; 168 h, 7 d) [µM] | MIC ([4]; 336 h, 14 d) [µM] | MIC ([4]; 504 h, 21 d) [µM] | MIC [5, 11] [µM] | MIC [5, 12] [µM] | MIC ([3]; 235/80, 168 h) [µM] | MIC ([3]; 235/80, 336 h) [µM] | MIC ([3]; 235/80, 504 h) [µM] | MIC ([4]; 168 h) [µM] | MIC ([4]; 336 h) [µM] | MIC ([4]; 504 h) [µM] | also measured |
| --- | --- | --- | --- | --- | --- | --- | --- | --- | --- | --- | --- | --- | --- | --- | --- | --- | --- | --- |
| O=C(Oc1cc(Cl)ccc1C(=O)Nc1ccc(F)cc1)c1ccc(C(F)(F)F)cc1 [1n] | 17 ± 1.3 | 4 (≈ 1.75 µg/mL) | 4 (≈ 1.75 µg/mL) | 2 (≈ 0.876 µg/mL) | 8 (≈ 3.5 µg/mL) | 8 (≈ 3.5 µg/mL) | 4 (≈ 1.75 µg/mL) | 8 (≈ 3.5 µg/mL) | 8 (≈ 3.5 µg/mL) | 4 (≈ 1.75 µg/mL) | 8 (≈ 3.5 µg/mL) |  |  |  |  |  |  |  |
| O=C(Oc1ccc(Cl)cc1C(=O)Nc1cccc(C(F)(F)F)c1)c1ccc(C(F)(F)F)cc1 [1q] | 19 ± 0.5 | 4 (≈ 1.95 µg/mL) | 16 (≈ 7.8 µg/mL) | 2 (≈ 0.976 µg/mL) | 4 (≈ 1.95 µg/mL) | 8 (≈ 3.9 µg/mL) | 1 (≈ 0.488 µg/mL) | 4 (≈ 1.95 µg/mL) | 8 (≈ 3.9 µg/mL) | 2 (≈ 0.976 µg/mL) | 2 (≈ 0.976 µg/mL) |  |  |  |  |  |  |  |
| O=C(O)CC[N+](=O)[O-] [3-NP, 3-nitropropionic acid, reference compound] | 25 ± 4.1 |  |  |  |  |  |  |  |  |  |  |  |  |  |  |  |  |  |
| NNC(=O)c1ccncc1 [INH, isoniazid, reference compound] | 0 | ≥ 250 | ≥ 250 |  |  |  |  |  |  | 0.5 to 1 (≈ 0.0686 to 0.137 µg/mL) | 0.5 to 1 (≈ 0.0686 to 0.137 µg/mL) | > 250 | > 250 | > 250 | 2 to 4 (≈ 0.274 to 0.549 µg/mL) | 4 to 8 (≈ 0.549 to 1.1 µg/mL) | 8 to 16 (≈ 1.1 to 2.19 µg/mL) | MIC ([5]; time not stated, read-out: MIC against M. tuberculosis): 1 µM (≈ 0.137 µg/mL) |
| Nc1ccc(C(=O)O)c(O)c1 [PAS, p-aminosalicylic acid, reference compound] |  | 32 (≈ 4.9 µg/mL) | 125 (≈ 19.1 µg/mL) |  |  |  |  |  |  | 62.5 (≈ 9.57 µg/mL) | 62.5 (≈ 9.57 µg/mL) | 125 (≈ 19.1 µg/mL) | 1000 (≈ 153 µg/mL) | > 1000 | 32 (≈ 4.9 µg/mL) | 125 (≈ 19.1 µg/mL) | 500 (≈ 76.6 µg/mL) |  |
| CC1(C)S[C@@H]2[C@H](NC(=O)Cc3ccccc3)C(=O)N2[C@H]1C(=O)O [PNC, benzylpenicillin, reference compound] |  |  |  |  |  |  |  |  |  |  |  |  |  |  |  |  |  | MIC ([6]; H6966/08, 24 h): 250 µM (≈ 83.6 µg/mL); MIC ([6]; H6966/08, 48 h): 250 µM (≈ 83.6 µg/mL); MIC ([7]; 24 h): 62.5 µM (≈ 20.9 µg/mL); MIC ([7]; 48 h): 125 µM (≈ 41.8 µg/mL); MIC ([8]; CCM4517, 24 h): > 500 µM; MIC ([8]; CCM4517, 48 h): > 500 µM; MIC ([9]; CCM4516, 24 h): 0.98 µM (≈ 0.328 µg/mL); MIC ([9]; CCM4516, 48 h): 0.98 µM (≈ 0.328 µg/mL); MIC ([10]; SP.J14365/08, 24 h): 7.81 µM (≈ 2.61 µg/mL); MIC ([10]; SP.J14365/08, 48 h): 15.6 µM (≈ 5.22 µg/mL) |
